Counter-ions that a name gives are not always drawn.
Molecular target: T1, recombinant guanylate cyclase reporter cell line (Rattus norvegicus, UniProt P19686+P20595)
T1 construct: expressed in transfected cells; host or cells: recombinant reporter cell line
T1 sequence (P19686 1-690): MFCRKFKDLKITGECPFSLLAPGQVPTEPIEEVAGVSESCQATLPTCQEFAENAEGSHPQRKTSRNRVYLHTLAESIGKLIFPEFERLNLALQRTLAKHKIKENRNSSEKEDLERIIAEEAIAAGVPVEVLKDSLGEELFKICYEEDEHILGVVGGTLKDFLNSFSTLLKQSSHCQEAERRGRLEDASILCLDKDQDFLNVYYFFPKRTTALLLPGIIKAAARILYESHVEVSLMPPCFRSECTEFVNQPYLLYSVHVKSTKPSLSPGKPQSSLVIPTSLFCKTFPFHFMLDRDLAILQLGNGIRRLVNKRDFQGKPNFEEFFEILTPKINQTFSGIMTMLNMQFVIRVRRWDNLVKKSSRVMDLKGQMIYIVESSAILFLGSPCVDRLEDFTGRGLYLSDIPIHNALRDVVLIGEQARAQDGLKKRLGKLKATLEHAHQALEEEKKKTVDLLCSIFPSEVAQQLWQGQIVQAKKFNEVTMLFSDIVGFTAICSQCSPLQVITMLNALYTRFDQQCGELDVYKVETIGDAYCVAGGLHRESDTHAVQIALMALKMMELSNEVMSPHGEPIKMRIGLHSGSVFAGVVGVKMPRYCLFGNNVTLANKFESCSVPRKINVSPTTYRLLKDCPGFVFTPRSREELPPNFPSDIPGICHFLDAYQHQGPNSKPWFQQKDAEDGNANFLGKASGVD
T1 sequence (P20595 1-619): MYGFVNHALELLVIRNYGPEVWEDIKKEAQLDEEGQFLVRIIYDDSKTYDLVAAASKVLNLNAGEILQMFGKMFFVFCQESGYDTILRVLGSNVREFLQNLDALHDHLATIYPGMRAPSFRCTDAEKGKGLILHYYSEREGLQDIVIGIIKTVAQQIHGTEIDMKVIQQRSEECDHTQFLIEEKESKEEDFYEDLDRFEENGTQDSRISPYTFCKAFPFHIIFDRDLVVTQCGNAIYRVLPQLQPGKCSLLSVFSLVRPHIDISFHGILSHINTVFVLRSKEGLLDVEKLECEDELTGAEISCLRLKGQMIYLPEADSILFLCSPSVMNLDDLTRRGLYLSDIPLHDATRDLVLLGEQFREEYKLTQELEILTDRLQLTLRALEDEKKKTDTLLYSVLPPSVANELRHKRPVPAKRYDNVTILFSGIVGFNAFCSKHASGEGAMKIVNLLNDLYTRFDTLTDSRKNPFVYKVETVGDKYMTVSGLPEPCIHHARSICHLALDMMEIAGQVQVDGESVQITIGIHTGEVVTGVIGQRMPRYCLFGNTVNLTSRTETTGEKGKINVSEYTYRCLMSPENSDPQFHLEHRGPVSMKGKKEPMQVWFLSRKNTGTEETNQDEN
Experiment: Action on recombinant guanylate cyclase reporter cell line
Assay type: cell-based
Settings: in some cases mean values from individual determinations
Description: B-2. Action on Recombinant Guanylate Cyclase Reporter Cell Line
The cellular action of the compounds according to the invention is determined on a recombinant guanylate cyclase reporter cell line, as described in F. Wunder et al., Anal. Biochem. 339, 104-112 (2005).
Representative MEC values (MEC=minimal effective concentration) for the compounds according to the invention are shown in the following table (in some cases as mean values obtained from individual determinations): […]

| MEC (minimal effective concentration) [µM] | SMILES |
| --- | --- |
| 0.20 | Cc1cc(OCc2c(F)cccc2F)c2nc(C)c(C(=O)NC3CCC(N)C3)n2c1 (mixture of isomers) [Example 308, N-(3-aminocyclopentyl)-8-[(2,6-difluorobenzyl)oxy]-2,6-dimethylimidazo[1,2-a]pyridine-3-carboxamide (stereoisomer mixture)] |
| 0.30 | Cc1cc(OCc2c(F)cccc2F)c2nc(C)c(C(=O)NC3CNCC3C(F)(F)F)n2c1 (mixture of isomers) [Example 313, 8-[(2,6-Difluorobenzyl)oxy]-2,6-dimethyl-N-[4-(trifluoromethyl)pyrrolidin-3-yl]imidazo[1,2-a]pyridine-3-carboxamide (mixture of stereoisomers)] |
| 1.00 | Cc1cc(OCc2c(F)cccc2F)c2nc(C)c(C(=O)NC3CC(N)C3)n2c1 (mixture of isomers) [Example 334, N-(3-aminocyclobutyl)-8-[(2,6-difluorobenzyl)oxy]-2,6-dimethylimidazo[1,2-a]pyridine-3-carboxamide (cis/trans mixture)] |
| 0.30 | Cc1cc(OCc2c(F)cccc2F)c2nc(C)c(C(=O)NC3CC(C)(C)C3N)n2c1 (mixture of isomers) [Example 358, N-(2-amino-3,3-dimethylcyclobutyl)-8-[(2,6-difluorobenzyl)oxy]-2,6-dimethylimidazo[1,2-a]pyridine-3-carboxamide Formate (Isomer Mixture)] |
| 0.65 | Cc1nc2c(OCc3c(F)cccc3F)cccn2c1C(=O)NC(CN)CC(F)(F)F (racemic) [Example 2, rac-N-(1-Amino-4,4,4-trifluorobutan-2-yl)-8-[(2,6-difluorobenzyl)oxy]-2-methylimidazo[1,2-a]-pyridine-3-carboxamide] |
| 1.00 | Cc1nc2c(OCc3c(F)cccc3F)cccn2c1C(=O)NC(CN)CC(C(F)(F)F)C(F)(F)F (racemic) [Example 5, rac-N-[1-amino-5,5,5-trifluoro-4-(trifluoromethyl)pentan-2-yl]-8-[(2,6-difluorobenzyl)oxy]-2-methylimidazo[1,2-a]-pyridine-3-carboxamide trifluoroacetate] |
| 0.30 | Cc1nc2c(OCc3c(F)cccc3F)cccn2c1C(=O)NC(CN)c1ccc(F)cc1 (racemic) [Example 9, rac-N-[2-Amino-1-(4-fluorophenyl)ethyl]-8-[(2,6-difluorobenzyl)oxy]-2-methylimidazo[1,2-a]-pyridine-3-carboxamide] |
| 0.30 | Cc1nc2c(OCc3c(F)cccc3F)cccn2c1C(=O)NC(CN)c1ccc(F)c(F)c1 (racemic) [Example 11, rac-N-[2-Amino-1-(3,4-difluorophenyl)ethyl]-8-[(2,6-difluorobenzyl)oxy]-2-methylimidazo[1,2-a]pyridine-3-carboxamide] |
| 1.00 | Cc1nc2c(OCc3c(F)cccc3F)cccn2c1C(=O)NC(CN)c1ccc(Cl)cc1 (racemic) [Example 14, rac-N-[2-Amino-1-(4-chlorophenyl)ethyl]-8-[(2,6-difluorobenzyl)oxy]-2-methylimidazo[1,2-a]-pyridine-3-carboxamide dihydrochloride] |
| 0.30 | Cc1nc2c(OCc3c(F)cccc3F)cccn2c1C(=O)NC(CN)c1ccccc1 (racemic) [Example 16, rac-N-(2-Amino-1-phenylethyl)-8-[(2,6-difluorobenzyl)oxy]-2-methylimidazo[1,2-a]pyridine-3-carboxamide dihydrochloride] |
| 1.00 | Cc1nc2c(OCc3c(F)cccc3F)cccn2c1C(=O)NC(C)CN (racemic) [Example 17, rac-N-(1-aminopropan-2-yl)-8-[(2,6-difluorobenzyl)oxy]-2-methylimidazo[1,2-a]pyridine-3-carboxamide dihydrochloride] |
| 0.30 | Cc1nc2c(OCc3c(F)cccc3F)cc(Cl)cn2c1C(=O)NCC(C)N (racemic) [Example 23, rac-N-(2-aminopropyl)-6-chloro-8-[(2,6-difluorobenzyl)oxy]-2-methylimidazo[1,2-a]-pyridine-3-carboxamide] |
| 0.30 | Cc1nc2c(OCc3c(F)cccc3F)cccn2c1C(=O)NC1CNc2ccccc21 (racemic) [Example 28, rac-8-[(2,6-difluorobenzyl)oxy]-N-(2,3-dihydro-1H-indol-3-yl)-2-methylimidazo[1,2-a]pyridine-3-carboxamide] |
| 1.00 | Cc1nc2c(OCc3c(F)cccc3F)cccn2c1C(=O)NCC(C)N (racemic) [Example 34, rac-N-(2-aminopropyl)-8-[(2,6-difluorobenzyl)-oxy]-2-methyl-imidazo[1,2-a]pyridine-3-carboxamide dihydrochloride] |
| 1.00 | Cc1nc2c(OCC3CCCCC3)cccn2c1C(=O)NC(CN)c1ccc(Cl)cc1 (racemic) [Example 43, rac-N-[2-Amino-1-(4-chlorophenyl)ethyl]-8-(cyclohexylmethoxy)-2-methylimidazo[1,2-a]-pyridine-3-carboxamide] |
| 0.30 | Cc1nc2c(OCC3CCCCC3)cccn2c1C(=O)NC(CN)c1ccccc1 (racemic) [Example 44, rac-N-(2-Amino-1-phenylethyl)-8-(cyclohexylmethoxy)-2-methylimidazo[1,2-a]pyridine-3-carboxamide] |
| 1.00 | Cc1nc2c(OCC3CCCCC3)cccn2c1C(=O)NC(CN)c1ccc(F)c(F)c1 (racemic) [Example 46, rac-N-[2-Amino-1-(3,4-difluorophenyl)ethyl]-8-(cyclohexylmethoxy)-2-methylimidazo[1,2-a]-pyridine-3-carboxamide] |
| 0.30 | Cc1nc2c(OCc3c(F)cccc3F)cc(Cl)cn2c1C(=O)NC1CNc2ccccc21 (racemic) [Example 49, rac-6-Chloro-8-[(2,6-difluorobenzyl)oxy]-N-(2,3-dihydro-1H-indol-3-yl)-2-methylimidazo[1,2-a]-pyridine-3-carboxamide] |
| 0.03 | Cc1nc2c(OCc3c(F)cccc3F)cccn2c1C(=O)NC1CCNc2ccccc21 (racemic) [Example 50, rac-8-[(2,6-Difluorobenzyl)oxy]-2-methyl-N-(1,2,3,4-tetrahydroquinolin-4-yl)imidazo[1,2-a]-pyridine-3-carboxamide] |
| 1.00 | Cc1nc2c(OCc3c(F)cccc3F)cccn2c1C(=O)NC(CN)COc1ccc(F)cc1 (racemic) [Example 58, rac-N-[1-amino-3-(4-fluorophenoxy)propan-2-yl]-8-[(2,6-difluorobenzyl)oxy]-2-methylimidazo[1,2-a]pyridine-3-carboxamide] |
| 3.00 | Cc1nc2c(OCc3c(F)cccc3F)cccn2c1C(=O)NC(CN)COc1ccccc1 (racemic) [Example 59, rac-N-(1-amino-3-phenoxypropan-2-yl)-8-[(2,6-difluorobenzyl)oxy]-2-methylimidazo[1,2-a]-pyridine-3-carboxamide dihydrochloride] |
| 0.30 | Cc1nc2c(OCc3c(F)cccc3F)cccn2c1C(=O)NC(CN)COC(C)C (racemic) [Example 63, rac-N-(1-Amino-3-isopropoxypropan-2-yl)-8-[(2,6-difluorobenzyl)oxy]-2-methylimidazo[1,2-a]-pyridine-3-carboxamide] |
| 1.00 | Cc1nc2c(OCc3c(F)cccc3F)cccn2c1C(=O)NC1CNc2ccccc2C1 (racemic) [Example 75, rac-8-[(2,6-Difluorobenzyl)oxy]-2-methyl-N-(1,2,3,4-tetrahydroquinolin-3-yl)imidazo[1,2-a]-pyridine-3-carboxamide] |

— patent publication US20150274719A1, “AMINO-SUBSTITUTED IMIDAZO[1,2-A]PYRIDINECARBOXAMIDES AND THEIR USE” (BAYER PHARMA AKTIENGESELLSCHAFT, priority 2012, published 2015)
